Data published in PMC6934184, “Selective DNA-PKcs inhibition extends the therapeutic index of localized radiotherapy and chemotherapy” (The Journal of Clinical Investigation, 2019).

Target: T1, MAP2K3 (MEK3) (Homo sapiens, UniProt P46734)
T1 construct: purchased Thermo Fisher Scientific (Life Technologies) SelectScreen
Test: SelectScreen LanthaScreen
Assay type: binding
Conditions: read-out: % displacement
In short: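 NU5455 was profiled across the SelectScreen Broad panel of kinase activity and binding assays. Z'LYTE reactions such as CSF1R ran at apparent Km ATP, while the Adapta CAMK1 assay used ATP listed as 10. Values are given as percent.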

T1 sequence (P46734 whole entry): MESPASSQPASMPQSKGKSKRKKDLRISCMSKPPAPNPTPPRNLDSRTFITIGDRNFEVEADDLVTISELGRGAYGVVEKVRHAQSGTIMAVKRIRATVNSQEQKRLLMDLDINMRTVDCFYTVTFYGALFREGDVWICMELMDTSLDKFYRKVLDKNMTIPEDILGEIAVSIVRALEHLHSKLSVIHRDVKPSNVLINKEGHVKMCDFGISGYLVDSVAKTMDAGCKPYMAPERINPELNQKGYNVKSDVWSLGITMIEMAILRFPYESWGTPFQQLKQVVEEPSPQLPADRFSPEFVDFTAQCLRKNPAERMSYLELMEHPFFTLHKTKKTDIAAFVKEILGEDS

SMILES: CN(C(=O)CN1CCOCC1)c1ccc2sc3c(-c4cccc5c(=O)cc(N6CC7CCC(C6)O7)oc45)cccc3c2c1 [NU5455]
- inhibition at 1 µM: 1.6%
